50 molecules from patent publication US20010049374A1 (priority 1997, published 2001) can be followed below.

pIC50: −log10 of the molar value.

One may read the pIC50 as the IC50 on a negative log10 scale, so that one unit is a factor of ten.

The first experiment deals with T1, urokinase enzyme Abbokinase (Homo sapiens, UniProt P00749).
T1 construct: purchased Abbott Laboratories, Abbott Park, Ill
Kind of experiment: Determination of urokinase inhibition (Abbokinase, chromogenic substrate S-2444). In kind it is biochemical. The note with it: IC50, Inhibitory potency against urokinase; substrate S-2444 at 200 μM, enzyme 2-3 nM, pH 7.4, 405 nm.
Protocol: Several vials were reconstituted as directed on the vial, aliquoted and stored frozen. The enzyme was further diluted in assay buffer and 10 μl was used in the assay. Enzyme concentration in the assay was 2-3 nM. […] The Spectromax® calculated the reaction rates which were used to calculate percent inhibition of the compounds of this invention versus the reaction rate of the enzyme in the absence of any inhibitor. The Ki's of the inhibitors were calculated from the percent inhibition and previously established Km.
In turn, `COc1ccc2ccc(C(=N)N)cc2c1Nc1ncccn1` [Example 91, 7-Methoxy-8-[2-pyrimidinyl(amino)]-2-naphthalenecarboximidamide] gave a pIC50 of 7.30. Consider `[H]/N=C(/N)c1ccc2cc(C=Cc3ccc(CN)cc3)ccc2c1` [Example 98, (E)-6-[2-[4-(aminomethyl)phenyl]ethenyl]-2-naphthalenecarboximidamide], for which the pIC50 was 6.62. The molecule `COc1ccc2ccc(C(=N)N)cc2c1NCc1ccccc1` [Example 101, 7-methoxy-8-[(phenylmethyl)amino]-2-naphthalenecarboximidamide] gave a pIC50 of 6.10. The same measure, in the same setting: the figure for `COc1ccc(Nc2c(OC)ccc3ccc(C(=N)N)cc23)cc1` [Example 103, 7-methoxy-8-[(4-methoxyphenyl)amino]-2-naphthalenecarboximidamide] is 6.24; for `[H]/N=C(/N)c1ccc2cc(C=Cc3ccc([C@@H](N)CO)cc3)ccc2c1` [Example 105, (E)-6-[2-[4-(1R-amino-2-hydroxyethyl)phenyl]ethenyl]-2-naphthalenecarboximidamide] it is 6.08.

`COc1ccc2ccc(C(=N)N)cc2c1Nc1ncccn1` [Example 106, 7-methoxy-8-(2-pyrimidinylamino)-2-naphthalenecarboximidamide] showed a pIC50 of 6.12.

`N=C(N)c1ccc2cc(-c3cccc(C=O)c3)ccc2c1` [Example 111, 6-(3-formylphenyl)-2-naphthalenecarboximidamide]: the pIC50 is 5.38. `N=C(N)c1ccc2cc(C#Cc3ccc(N)cc3)ccc2c1` [Example 121, 6-[(4-aminophenyl)ethynyl]-2-naphthalenecarboximidamide] showed a pIC50 of 6.05. For the molecule `COc1ccc(C#Cc2ccc3cc(C(=N)N)ccc3c2)cc1CCN` [Example 125, 6-[[3-(2-aminoethyl)-4-methoxyphenyl]ethynyl]-2-naphthalenecarboximidamide], the pIC50 is 6.64. On to `N=C(N)c1ccc2cc(C#Cc3ccc(CO)cc3)ccc2c1` [Example 126, 6-[[4-(hydroxymethyl)phenyl]ethynyl]-2-naphthalenecarboximidamide], for which the pIC50 is 6.06.

`COc1ccc2ccc(C(=N)N)cc2c1C1=CC(=O)CC1` [Example 131, 7-methoxy-8-(3-oxo-1-cyclopenten-1-yl)-2-naphthalenecarboximidamide] showed a pIC50 of 5.38. On the same count and under the same terms, the figure for `N=C(N)c1ccc2cc(NC(=O)C3CCC(CN)CC3)ccc2c1` (centres unmarked) [Example 139, N-[6-(aminoiminomethyl)-2-naphthalenyl]-4-4-(aminomethyl)cyclohexanescarboxamide] is 5.58; for `N=C(N)c1ccc2cc(NC(=O)Nc3ccc(CN)cc3)ccc2c1` [Example 140, N-[6-(aminoiminomethyl)-2-naphthalenyl]-N′-[(4-aminomethyl)phenyl]urea] it is 6.34.

For `N=C(N)c1ccc2cc(-c3ncc(-c4ccccc4)o3)ccc2c1` [Example 144, 6-(5-phenyl-2-oxazolyl)-2-naphthalenecarboximidamide], the pIC50 is 5.90.

For the molecule `N=C(N)c1ccc2cc(-c3ncc(-c4ccccc4)s3)ccc2c1` [Example 145, 6-(5-phenyl-2-thiazolyl)-2-naphthalenecarboximidamide], the pIC50 is 5.59. Still for that read-out and setting: the figure for `COc1ccc2ccc(C(=N)N)cc2c1Sc1ccccc1` [Example 149, 7-methoxy-8-(phenylthio)-2-naphthalenecarboximidamide] is 5.42; for `COc1ccc2ccc(C(=N)N)cc2c1Nc1cnccn1` [Example 150, 7-methoxy-8-(pyrazinylamino)-2-naphthalenecarboximidamide] it is 6.80. For the molecule `CSc1cc(-c2cc(C(=O)Nc3ccccc3)cc3ccc(C(=N)N)cc23)co1` [Example 154, 6-(aminoiminomethyl-4-[5-(methylthio)-3-furanyl)]-N-phenyl-2-naphthalenecarboxamide], the pIC50 was 7.46.

As for `COC(=O)Nc1cc(C(=O)Nc2ccc(CN)cc2)cc2ccc(C(N)=NO)cc12` [Example 170, methyl [3-[[[4-(aminomethyl)phenyl]amino]carbonyl]-7-[4-amino(hydroxyimino)methyl]-1-naphthalenyl]carbamate], the pIC50 was 6.16. The molecule `NC(=NO)c1ccc2cc(C(=O)Nc3ccccc3)ccc2c1` [Example 171] gave a pIC50 of less than 4.52. In turn, `N=C(N)c1ccc2cccc(Nc3ccccn3)c2c1` [Example 174, 8-(2-pyridinylamino)-2-naphthalenecarboximidamide] showed a pIC50 of 6.77. `N=C(N)c1ccc2cc(OCc3ccc(CO)cc3)ccc2c1` [Example 176, 6-[4-[(hydroxymethyl)phenyl]methoxy]-2-naphthalenecarboximidamide] gave a pIC50 of 5.30. Still for that read-out and setting: the figure for `N=C(NO)c1ccc2cccc(Nc3ncccn3)c2c1` [Example 177, N-hydroxy-8-(2-pyrimidinylamino)-2-naphthalenecarboximidamide] is 4.83; for `NC(=NO)c1ccc2cc(C(=O)Nc3ccccc3)cc(Nc3ncccn3)c2c1` [Example 181] it is 5.05; for `COC(=O)c1ccc(COc2ccc3ccc(C(N)=NO)cc3c2)cc1` [Example 182] it is less than 4.52. For `N=C(N)c1ccc2ccc(OCCN3CCOCC3)cc2c1` [Example 206, 7-[2-(4-morpholinyl)ethoxy]-2-naphthalenecarboximidamide], the pIC50 was 5.24. Same read-out and setting: the figure for `N=C(N)c1ccc2cc(C3CC3c3ccc(CO)cc3)ccc2c1` (centres unmarked) [Example 215, 6-[2-[4-(hydroxymethyl)phenyl]-1-cyclopropyl]-2-naphthalenecarboximidamide] is 5.96; for `CCOC(=O)NC(=N)c1ccc2cc(C3CC3c3ccccc3)ccc2c1` (centres unmarked) [Example 216, N-(ethoxycarbonyl)-6-(2-phenyl-1-cyclopropyl)-2-naphthalenecarboximidamide] it is less than 4.52. The same measure, in the same setting: the figure for `CSCc1cc(-c2cc(C(=O)Nc3ccccc3)cc3ccc(C(=N)N)cc23)co1` [Example 229] is 6.93.

Still in this experiment, the particulars now being: Inhibitory potency against urokinase; substrate S-2444 at 200 μM, enzyme 2-3 nM, pH 7.4, 405 nm; read-out: IC50.
On to `[H]/N=C(/N)c1ccc2cc(C=Cc3cccc(CO)c3)ccc2c1` [Example 96, (E)-6-[2-[(3-hydroxymethyl)phenyl]ethenyl]-2-naphthalenecarboximidamide], for which the pIC50 is 6.07.

Turning to `[H]/N=C(/N)c1ccc2cc(C=Cc3ccc(CN(C)C)cc3)ccc2c1` [Example 107, (E)-6-[2-[[4-(dimethylamino)methyl]phenyl]ethenyl]-2-naphthalenecarboximidamide], the pIC50 was 5.63.

As for `COC(=O)CCCCOc1ccc2ccc(C(=N)N)cc2c1` [Example 119, methyl 5-[7-[(aminoiminomethyl)-2-naphthalenyl]oxy]pentanoate], the pIC50 was 5.36. As to `CC(C)(C)OC(=O)NCc1ccc(C#Cc2ccc3cc(C(=N)N)ccc3c2)cc1` [Example 123, 1,1-dimethylethyl [[4-[[6-(aminoiminomethyl)-2-naphathalenyl]ethynyl]phenyl]methyl]carbamate], the pIC50 is 5.91. For the molecule `CC(C)(C)OC(=O)NCC1CCC(C(=O)Nc2ccc3cc(C(=N)N)ccc3c2)CC1` (centres unmarked) [Example 137, 1,1-dimethylethyl [[4-[[[6-(aminoiminomethyl)-2-naphathalenyl]amino]carbonyl]-cyclohexyl]methyl]carbamate], the pIC50 is 6.09. For `COC(=O)Nc1cc(C(=O)Nc2ccc(CN)cc2)cc2ccc(C(=N)N)cc12` [Example 141, methyl [7-(aminoiminomethyl)-3-[[[4-(aminomethyl)phenyl]amino]carbonyl]-1-naphathalenyl]carbamate], the pIC50 was 8.93. For `COC(=O)NCc1cccc2ccc(C(=N)N)cc12` [Example 155, methyl [7-(aminoiminomethyl)-1-naphthalenyl]methyl carbamate], the pIC50 was 5.63. For `N=C(N)c1ccc2cc(C#Cc3ccccn3)ccc2c1` [Example 179, 6-(2-pyridinylethynyl)-2-naphthalenecarboximidamide], the pIC50 was 5.79. On the same count and under the same terms, the figure for `Cc1cc(NC(=O)c2ccc3cc(C(=N)N)ccc3c2)no1` [Example 192] is 5.80; for `N=C(N)c1ccc2cc(C(=O)Nc3ncc(Br)s3)ccc2c1` [Example 197] it is 5.69.

As to `CCCSc1cc(-c2cc(C(=O)Nc3ccccc3)cc3ccc(C(=N)N)cc23)co1` [Example 201], the pIC50 is 7.11. `N=C(N)c1ccc2cc(C(=O)Nc3ccccc3)cc(C3CCCN3)c2c1` (centres unmarked) [Example 207, 6-(aminoiminomethyl)-N-phenol-4-(2-pyrrolidinyl)-2-naphthalenecarboxamide]: the pIC50 was 5.39. As to `N=C(N)c1ccc2cc(OCC(=O)O)ccc2c1` [Example 212], the pIC50 was 5.29. On the same count and under the same terms, the figure for `COC(=O)c1ccc(COc2ccc3cc(C(=N)N)ccc3c2)cc1` [Example 213] is 5.34; for `N=C(N)c1ccc2cc(C(=O)Nc3cccc(OCc4ccccc4)c3)ccc2c1` [Example 222] it is 6.46. Consider `CCSC1CC(c2cc(C(=O)Nc3ccccc3)cc3ccc(C(=N)N)cc23)CO1` (centres unmarked) [Example 232, 6-(aminoiminomethyl)-4-[5-(ethythio)tetrahydro-3-furanyl]-N-phenyl-2-naphthalenecarboxamide], for which the pIC50 is 6.91. For “(E)-3-[7-(aminoiminomethyl)-2-methoxy-1-naphthalenyl)-2-propenamide [Example 120]”, the pIC50 is 6.03.

Take “(E)-4-[2-(6-Aminoiminomethyl-2-naphthalenyl)ethenyl]benzenesulfonamide [Example 83]”: the pIC50 was 5.65. In the case of “(E)-4-[2-(6-Aminoiminomethyl-2-naphthalenyl)ethenyl]benzoic acid [Example 84]”, the pIC50 was 5.00. For the molecule “(E)-6-[2-[4-(hydroxymethyl)phenyl]ethenyl]-2-naphthalenecarboximidamide [Example 108]”, the pIC50 was 6.00. The same measure, in the same setting: the figure for “(S)-2-Amino-N-[1-[(6-aminoiminomethyl-2-naphthalenyl)carbonyl]cyclohexyl]propionamide [Example 37]” is 5.63.
